Patent publication US20260174784A1, “Molecular Signatures that Predict Risk for Development of Hepatic Encephalopathy” (The Regents of the University of California, priority 2022, published 2026)

What was measured:
hepatic encephalopathy = assay: HE treatment of readmitted TIPS participant 11_a (case course); format: in vivo, human; conditions: for response to HE treatment: first readmission 9 days post-TIPS, lactulose and rifaximin given together
Text: After the data were collected, the hospital courses of the two participants who were readmitted during the study period were examined. Participant 11_a (FIG. 6C) was a person with a history of cryptogenic cirrhosis with banded esophageal varices but with no prior history of HE. They underwent TIPS procedure due to progressively worsening ascites refractory to diuretic therapy and need for intermittent paracentesis. They were readmitted to the medical intensive care unit 9 days post-TIPS with obtundation requiring intubation for airway protection. Blood was drawn on the day of admission before initiation of hepatic encephalopathy treatment (pre-HET) (FIG. 6C). […] Blood was collected for analysis on the day after treatment initiation (post-HET) (FIG. 6C). They were discharged 9 days later. However, they were readmitted within 72 hours for altered mental status. […] Their encephalopathy resolved after continuous polyethylene glycol infusion via nasojejunal tube, but was again admitted 352 days post-TIPS for HE in the setting of urosepsis.

[1] = target: T1, farnesoid X receptor (FXR) (Homo sapiens, UniProt Q96RI1); conditions: ligand-mediated nuclear receptor; literature ref 48; cited from earlier work
T1 sequence (Q96RI1 1-486): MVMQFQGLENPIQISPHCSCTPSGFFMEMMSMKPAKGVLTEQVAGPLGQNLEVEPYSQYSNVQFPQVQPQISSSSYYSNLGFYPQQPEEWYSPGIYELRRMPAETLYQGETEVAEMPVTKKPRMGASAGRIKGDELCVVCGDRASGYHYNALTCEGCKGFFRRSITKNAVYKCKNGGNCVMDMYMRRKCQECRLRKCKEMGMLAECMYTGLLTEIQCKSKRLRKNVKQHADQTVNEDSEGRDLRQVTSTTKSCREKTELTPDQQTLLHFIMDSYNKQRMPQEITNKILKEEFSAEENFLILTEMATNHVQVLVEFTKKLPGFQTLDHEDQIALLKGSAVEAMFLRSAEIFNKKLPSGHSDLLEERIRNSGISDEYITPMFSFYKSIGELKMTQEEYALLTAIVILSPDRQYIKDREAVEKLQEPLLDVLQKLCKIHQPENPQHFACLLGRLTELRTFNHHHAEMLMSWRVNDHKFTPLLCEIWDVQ

[2] = test system: neuronal oxidative damage induced by bilirubin; conditions: supplementation with GUDCA; previous studies in animal models; cited from earlier work

Compound: CO[C@H]1/C=C/O[C@@]2(C)Oc3c(C)c(O)c4c(O)c(c5c(nc6cc(C)ccn65)c4c3C2=O)NC(=O)/C(C)=C\C=C\[C@H](C)[C@H](O)[C@@H](C)[C@@H](O)[C@@H](C)[C@H](OC(C)=O)[C@@H]1C [rifaximin]
- response to HE treatment (hepatic encephalopathy): responded well

Compound: OC[C@H]1O[C@@H](O[C@@H]2[C@@H](CO)OC(O)(CO)[C@H]2O)[C@H](O)[C@@H](O)[C@H]1O (mixture of isomers) [lactulose]
- response to HE treatment (hepatic encephalopathy): responded well

Compound: polyethylene glycol
- encephalopathy outcome (hepatic encephalopathy; second readmission, continuous infusion via nasojejunal tube): resolved

Compound: C[C@H](CCC(=O)NCC(=O)O)[C@H]1CC[C@H]2[C@@H]3[C@@H](O)C[C@@H]4C[C@H](O)CC[C@]4(C)[C@H]3CC[C@]12C [GUDCA, glycoursodeoxycholic acid]
- effect on farnesoid X receptor (FXR) [1]: directly inhibited
- neuronal oxidative damage induced by bilirubin [2]: can be inhibited
